ChEMBL document CHEMBL3885861, “Open TG-GATES”

Species: Rattus norvegicus
Assay: Open TG-GATES - Regimen: Single
Type: toxicity, organism-based, Sprague-Dawley
Parameters: regimen Single, gender Male, age 6 weeks
Conditions: in vivo, po, route gavage; for APTT / Bas / Eos / Fbg / Hb / Ht / Lym / MCHC / MCV / Mono / Neu / PT / Plat / RBC / Ret / WBC: tissue Blood; for KIDNEY_L / KIDNEY_R / KIDNEY_TOTAL: tissue Kidney; for LIVER: tissue Liver; for ALP / ALT / AST / BUN / CRE / DBIL / GLC / IP / K / LDH / Na / PL / RALB / TBIL / TC / TG / TP / gamma-GTP: tissue Plasma
[1] = 1000 mg/kg, 3 h, dose level Middle
[2] = 1000 mg/kg, 6 h, dose level Middle
[3] = 1000 mg/kg, 9 h, dose level Middle
[4] = 1000 mg/kg, 24 h, dose level Middle
[5] = 2000 mg/kg, 3 h, dose level High
[6] = 2000 mg/kg, 6 h, dose level High
[7] = 2000 mg/kg, 9 h, dose level High
[8] = 2000 mg/kg, 24 h, dose level High

C#C[C@]1(O)CC[C@H]2[C@@H]3CCC4=Cc5oncc5C[C@]4(C)[C@H]3CC[C@@]21C [DANAZOL]
TERMINAL_BW [1]: 216 g | APTT [1]: 22.9 s | Bas [1]: 0% | Eos [1]: 1% | Fbg [1]: 300.8 mg/dL | Hb [1]: 13.5 g/dL | Ht [1]: 40.7% | Lym [1]: 79.2% | MCHC [1]: 33.1% | MCV [1]: 63.8 fL | Mono [1]: 2.4% | Neu [1]: 16.2% | PT [1]: 15.7 s | Plat [1]: 103.2 x10_4/uL | RBC [1]: 638.4 x10_4/ul | Ret [1]: 7.1% | WBC [1]: 83.8 x10_2/uL | KIDNEY_L [1]: 0.9 g | KIDNEY_R [1]: 0.9 g | KIDNEY_TOTAL [1]: 1.8 g | LIVER [1]: 9.6 g | ALP [1]: 1405.8 IU/L | ALT [1]: 41.8 IU/L | AST [1]: 78 IU/L | BUN [1]: 14 mg/dL | CRE [1]: 0.2 mg/dL | DBIL [1]: 0.002 mg/dL | GLC [1]: 178.6 mg/dL | IP [1]: 7.6 mg/dL | K [1]: 4.1 meq/L | LDH [1]: 128 IU/L | Na [1]: 142.4 meq/L | PL [1]: 129 mg/dL | RALB [1]: 3 g/dL | TBIL [1]: 0.022 mg/dL | TC [1]: 66.6 mg/dL | TG [1]: 73.4 mg/dL | TP [1]: 5.5 g/dL | gamma-GTP [1]: 1.8 IU/L | TERMINAL_BW [2]: 216.7 g | APTT [2]: 22.9 s | Bas [2]: 0% | Eos [2]: 1% | Fbg [2]: 306.4 mg/dL | Hb [2]: 13 g/dL | Ht [2]: 39.6% | Lym [2]: 74.2% | MCHC [2]: 32.8% | MCV [2]: 62.6 fL | Mono [2]: 3% | Neu [2]: 21% | PT [2]: 16.4 s | Plat [2]: 107.1 x10_4/uL | RBC [2]: 633.6 x10_4/ul | Ret [2]: 7.6% | WBC [2]: 97.7 x10_2/uL | KIDNEY_L [2]: 0.9 g | KIDNEY_R [2]: 1 g | KIDNEY_TOTAL [2]: 1.9 g | LIVER [2]: 9.5 g | ALP [2]: 1279 IU/L | ALT [2]: 34.4 IU/L | AST [2]: 70.8 IU/L | BUN [2]: 10.2 mg/dL | CRE [2]: 0.1 mg/dL | DBIL [2]: 0.002 mg/dL | GLC [2]: 181.8 mg/dL | IP [2]: 9.3 mg/dL | K [2]: 4.2 meq/L | LDH [2]: 139.8 IU/L | Na [2]: 141.4 meq/L | PL [2]: 131.6 mg/dL | RALB [2]: 3 g/dL | TBIL [2]: 0.026 mg/dL | TC [2]: 67 mg/dL | TG [2]: 60.4 mg/dL | TP [2]: 5.4 g/dL | gamma-GTP [2]: 1.4 IU/L | TERMINAL_BW [3]: 208.1 g | APTT [3]: 21.9 s | Bas [3]: 0% | Eos [3]: 0.6% | Fbg [3]: 302.4 mg/dL | Hb [3]: 12.9 g/dL | Ht [3]: 39.7% | Lym [3]: 77.8% | MCHC [3]: 32.6% | MCV [3]: 62.9 fL | Mono [3]: 2.2% | Neu [3]: 18.6% | PT [3]: 16.7 s | Plat [3]: 114.4 x10_4/uL | RBC [3]: 630.2 x10_4/ul | Ret [3]: 7.3% | WBC [3]: 82.7 x10_2/uL | KIDNEY_L [3]: 0.9 g | KIDNEY_R [3]: 1 g | KIDNEY_TOTAL [3]: 1.9 g | LIVER [3]: 8.6 g | ALP [3]: 1309.4 IU/L | ALT [3]: 33.6 IU/L | AST [3]: 66.8 IU/L | BUN [3]: 9.6 mg/dL | CRE [3]: 0.1 mg/dL | DBIL [3]: 0.014 mg/dL | GLC [3]: 178.8 mg/dL | IP [3]: 9.4 mg/dL | K [3]: 4.2 meq/L | LDH [3]: 139 IU/L | Na [3]: 141.4 meq/L | PL [3]: 109 mg/dL | RALB [3]: 3 g/dL | TBIL [3]: 0.038 mg/dL | TC [3]: 54.4 mg/dL | TG [3]: 53 mg/dL | TP [3]: 5.4 g/dL | gamma-GTP [3]: 1.6 IU/L | TERMINAL_BW [4]: 216 g | APTT [4]: 23.2 s | Bas [4]: 0% | Eos [4]: 1% | Fbg [4]: 290 mg/dL | Hb [4]: 13.6 g/dL | Ht [4]: 41% | Lym [4]: 81.5% | MCHC [4]: 33.2% | MCV [4]: 62.3 fL | Mono [4]: 2.8% | Neu [4]: 13.5% | PT [4]: 17.8 s | Plat [4]: 107.7 x10_4/uL | RBC [4]: 658.6 x10_4/ul | Ret [4]: 6.6% | WBC [4]: 73 x10_2/uL | KIDNEY_L [4]: 1 g | KIDNEY_R [4]: 1 g | KIDNEY_TOTAL [4]: 2 g | LIVER [4]: 10.5 g | ALP [4]: 1988.8 IU/L | ALT [4]: 42.4 IU/L | AST [4]: 72.2 IU/L | BUN [4]: 13.8 mg/dL | CRE [4]: 0.1 mg/dL | DBIL [4]: 0 mg/dL | GLC [4]: 184.6 mg/dL | IP [4]: 6.5 mg/dL | K [4]: 4.5 meq/L | LDH [4]: 186 IU/L | Na [4]: 141 meq/L | PL [4]: 123 mg/dL | RALB [4]: 3.1 g/dL | TBIL [4]: 0.002 mg/dL | TC [4]: 45.8 mg/dL | TG [4]: 233.4 mg/dL | TP [4]: 5.5 g/dL | gamma-GTP [4]: 1.2 IU/L | TERMINAL_BW [5]: 217 g | APTT [5]: 22.7 s | Bas [5]: 0% | Eos [5]: 1% | Fbg [5]: 312.2 mg/dL | Hb [5]: 13.3 g/dL | Ht [5]: 40.5% | Lym [5]: 77.2% | MCHC [5]: 33% | MCV [5]: 62.8 fL | Mono [5]: 3.2% | Neu [5]: 18.2% | PT [5]: 15.5 s | Plat [5]: 120.2 x10_4/uL | RBC [5]: 644 x10_4/ul | Ret [5]: 7.3% | WBC [5]: 73.3 x10_2/uL | KIDNEY_L [5]: 1 g | KIDNEY_R [5]: 1 g | KIDNEY_TOTAL [5]: 2 g | LIVER [5]: 9.7 g | ALP [5]: 1466 IU/L | ALT [5]: 45 IU/L | AST [5]: 78 IU/L | BUN [5]: 13.6 mg/dL | CRE [5]: 0.1 mg/dL | DBIL [5]: 0 mg/dL | GLC [5]: 178.2 mg/dL | IP [5]: 8.5 mg/dL | K [5]: 4.4 meq/L | LDH [5]: 162 IU/L | Na [5]: 141 meq/L | PL [5]: 138.4 mg/dL | RALB [5]: 3.1 g/dL | TBIL [5]: 0.02 mg/dL | TC [5]: 68.2 mg/dL | TG [5]: 99.2 mg/dL | TP [5]: 5.4 g/dL | gamma-GTP [5]: 1.8 IU/L | TERMINAL_BW [6]: 217.1 g | APTT [6]: 23.2 s | Bas [6]: 0% | Eos [6]: 1% | Fbg [6]: 282.6 mg/dL | Hb [6]: 12.6 g/dL | Ht [6]: 39% | Lym [6]: 75.4% | MCHC [6]: 32.3% | MCV [6]: 63.5 fL | Mono [6]: 2.8% | Neu [6]: 20.6% | PT [6]: 16.5 s | Plat [6]: 113.2 x10_4/uL | RBC [6]: 613 x10_4/ul | Ret [6]: 8.1% | WBC [6]: 86.2 x10_2/uL | KIDNEY_L [6]: 1 g | KIDNEY_R [6]: 1 g | KIDNEY_TOTAL [6]: 2 g | LIVER [6]: 9.6 g | ALP [6]: 1348.6 IU/L | ALT [6]: 34.8 IU/L | AST [6]: 69 IU/L | BUN [6]: 12.2 mg/dL | CRE [6]: 0.1 mg/dL | DBIL [6]: 0 mg/dL | GLC [6]: 178 mg/dL | IP [6]: 8.5 mg/dL | K [6]: 4.5 meq/L | LDH [6]: 159.6 IU/L | Na [6]: 140.4 meq/L | PL [6]: 122.4 mg/dL | RALB [6]: 2.9 g/dL | TBIL [6]: 0.028 mg/dL | TC [6]: 57.6 mg/dL | TG [6]: 71.6 mg/dL | TP [6]: 5.3 g/dL | gamma-GTP [6]: 1.8 IU/L | TERMINAL_BW [7]: 216.8 g | APTT [7]: 23.7 s | Bas [7]: 0% | Eos [7]: 0.8% | Fbg [7]: 276.2 mg/dL | Hb [7]: 12.7 g/dL | Ht [7]: 39.3% | Lym [7]: 74.6% | MCHC [7]: 32.3% | MCV [7]: 63.9 fL | Mono [7]: 2.8% | Neu [7]: 20.8% | PT [7]: 16.9 s | Plat [7]: 110.6 x10_4/uL | RBC [7]: 615.4 x10_4/ul | Ret [7]: 7.2% | WBC [7]: 77.3 x10_2/uL | KIDNEY_L [7]: 1 g | KIDNEY_R [7]: 1 g | KIDNEY_TOTAL [7]: 2 g | LIVER [7]: 9.1 g | ALP [7]: 1416.2 IU/L | ALT [7]: 31.6 IU/L | AST [7]: 73.8 IU/L | BUN [7]: 11.6 mg/dL | CRE [7]: 0.2 mg/dL | DBIL [7]: 0.004 mg/dL | GLC [7]: 180.8 mg/dL | IP [7]: 9.2 mg/dL | K [7]: 4.2 meq/L | LDH [7]: 128 IU/L | Na [7]: 141.2 meq/L | PL [7]: 110.8 mg/dL | RALB [7]: 2.9 g/dL | TBIL [7]: 0.032 mg/dL | TC [7]: 47.2 mg/dL | TG [7]: 99.4 mg/dL | TP [7]: 5.2 g/dL | gamma-GTP [7]: 1.4 IU/L | TERMINAL_BW [8]: 217.9 g | APTT [8]: 24.3 s | Bas [8]: 0% | Eos [8]: 1% | Fbg [8]: 286.4 mg/dL | Hb [8]: 13.3 g/dL | Ht [8]: 39.8% | Lym [8]: 74.8% | MCHC [8]: 33.4% | MCV [8]: 62.7 fL | Mono [8]: 2.4% | Neu [8]: 21.4% | PT [8]: 18.6 s | Plat [8]: 127.2 x10_4/uL | RBC [8]: 635.8 x10_4/ul | Ret [8]: 7.2% | WBC [8]: 84.4 x10_2/uL | KIDNEY_L [8]: 1 g | KIDNEY_R [8]: 1 g | KIDNEY_TOTAL [8]: 2 g | LIVER [8]: 10.5 g | ALP [8]: 1879.4 IU/L | ALT [8]: 44.4 IU/L | AST [8]: 76.8 IU/L | BUN [8]: 12.2 mg/dL | CRE [8]: 0.1 mg/dL | DBIL [8]: 0 mg/dL | GLC [8]: 186 mg/dL | IP [8]: 6.9 mg/dL | K [8]: 4.3 meq/L | LDH [8]: 219.6 IU/L | Na [8]: 141.6 meq/L | PL [8]: 121.2 mg/dL | RALB [8]: 3.1 g/dL | TBIL [8]: 0 mg/dL | TC [8]: 44.6 mg/dL | TG [8]: 266.6 mg/dL | TP [8]: 5.6 g/dL | gamma-GTP [8]: 1.2 IU/L
